# “Also recorded” adds a separate entry of the source. Read-outs that look alike come from different tables or passages of the source.
# Experiments:
# [1] = target: T1, ΔN LSD1-CoREST (Homo sapiens, UniProt O60341+Q9UKL0); assay: Quantitative Western blot assay of demethylation on H3K4me2 nucleosome substrates in presence of NLS peptide; assay type: biochemical; conditions: 2 μM ΔN LSD1-CoREST, 100 nM H3K4me2 nucleosome (147 bp DNA), 50 mM Hepes pH 8.0, 50 mM KCl, 25 °C, from relative kobs, Hill coefficient set to 1, N = 2; read-out: IC50 for inhibition of demethylation on H3K4me2 nucleosome substrates
# T1 construct: The N terminally truncated (aa 171–852) LSD1 plasmid (pGEX-6P-1-ΔN LSD1); GST (cleaved yes); made in house; host or cells: E. coli Rosetta (DE3) pLysS, co-expression
# From the text: Based on these coupled assay results and data (Fig. 2, C and D), we developed an in vitro quantitative WB assay to monitor LSD1-catalyzed demethylation on H3K4me2 nucleosome substrates. This approach provides enhanced reliability of the antibody reagents as well as a robust measure of the impact of the NLS peptide on LSD1’s ability to demethylate nucleosomes ([39]). A series of time-course assays with increasing NLS peptide measured the fraction of demethylated H3K4me2 nucleosomes containing a 147 bp DNA, and this was visualized using an anti-H3K4me2-specific antibody or a control H3 antibody (Fig. 4, B and C). Here, dividing the H3K4me2 antibody signal by the H3 antibody signal allowed for quantitation of each data point, where the disappearance of H3K4me2 signal directly corresponds to the NLS's ability to impact LSD1’s demethylation activity. The H3K4me2/H3 ratios were normalized at time zero and plotted as a function of time (minutes), and the determined rate constant (kobs) values were evaluated at increasing NLS concentrations (Fig. 4, B and C).
# Quantitative WB activity assays of the ΔN LSD1- CoREST and FL-LSD1- CoREST at 2, 5, 10, and 20 μM concentrations were performed in reaction conditions containing 50 mM Hepes (pH 8.0), 50 mM KCl, 5% glycerol, and 1 mM TCEP and were initiated with 100 nM nucleosome substrate. […]
# [2] = target: T1, ΔN LSD1-CoREST; assay: Horseradish peroxidase (HRP) coupled demethylase assay on 21 a.a. H3K4me2 peptide substrate; assay type: biochemical; conditions: for effect of peptide on LSD1 demethylation activity (absorbance vs time): 10 μM peptide, 10 μM H3K4me2 21 aa substrate; for effect of peptide on LSD1 demethylation activity (absorbance vs time) / Ki: 0.3 μM ΔN LSD1-CoREST; for effect of peptide on LSD1 demethylation activity (absorbance vs time) / Ki / acts as substrate of LSD1: HRP-coupled assay; for Ki: H3K4me2 (1-21) peptide 10-60 μM, 50 mM Hepes pH 7.5, 25 °C, competitive fit, N = 2, read-out: inhibition constant Ki (Ki app) on H3K4me2 peptide substrate; for fold weaker inhibition (Ki) compared to the NLS peptide: 21 aa H3K4me2 model peptide substrate; for acts as substrate of LSD1: 10 μM peptide alone
# Procedure: An inhibition study was performed using horseradish peroxidase (HRP) coupled demethylase assay in the presence of NLS, P1, or P2 peptides, using the 21 a.a H3K4me ([2]) peptide as substrate ([9], [38]). […] When a full inhibition study was performed using different concentrations of the 21 a.a. […] Control experiments indicate that the NLS peptide directly influences the LSD1 catalyzed reaction and that inhibition is not an artifact of the HRP-coupled assay system (Fig. S8).
# LSD1-CoREST activity assays were performed using well-established peroxidase-coupled assay that monitors H2O2 production under aerobic conditions ([48]). Initial velocity measurements were measured using a Shimadzu UV2600 UV-Visible spectrophotometer equipped with thermostated cell holder (T = 25 °C). ΔN LSD1-CoREST was buffer exchanged into 25 mM Hepes pH 7.4, 100 mM NaCl, and 5 mM TCEP buffer. Each 150 μl reaction mixture contained 50 mM Hepes (Na) pH 7.5, 0.3 μM ΔN LSD1-CoREST, 1 μg of HRP, 0.1 mM 4-aminoantipyrine, and contained various substrate concentrations (10, 20, 30, 40, and 60 μM). Enzyme reactions were initiated by the addition of substrate; H3K4me2 peptide aa 1 to 21 or the NLS-K114me2 peptide (107–120, dimethylated at K114), into the reaction mixture in quartz cuvette. Activity region monitored was 0 to 30 s, and total time of each measurement was 180 s. Baseline correction was done at 505 to 525 nm. Changes in absorbance were measured at 515 nm wavelength and initial velocity calculations were done using an extinction coefficient of 26,000 M^−1 cm^−1 by Graphpad Prism (http://www.graphpad.com). Initial velocity values obtained from absorbance versus time graph, and they were fitted to Michaelis-Menten equation nonlinear regression and obtained Vmax (maximum velocity), apparent kmax (turnover number) and Km (Michaelis constant).
# Peptide inhibition assays in presence of model substrate were conducted as follows using a peroxidase-coupled assay that monitors H2O2 production under aerobic conditions. A 150 μl reaction mixture contained 50 mM Hepes (Na) pH 7.5, 0.3 μM ΔN LSD1-CoREST, 1 μg of HRP, 0.1 mM 4-aminoantipyrine, 1.0 mM 3,5-dichloro-2- hydroxybenzenesulfonic acid, NLSK114me2 10 μM (as inhibitor and substrate)/NLSp∗ 10 μM/NLS 10 μM/P1 10 μM/P2 10 μM and H3K4me2 21aa substrate 10 μM. Enzyme reactions were initiated by the addition of substrate; H3K4me2 peptide aa (1–21) into the reaction mixture in quartz cuvette. Initial velocity values obtained from absorbance versus time graph were fitted to inhibition models using nonlinear regression fit. Complete kinetics profiles were performed for the NLS and NLSp∗ peptides, where different concentrations of NLS (0, 2.5 μM, 5 μM, 10 μM) or NLSp∗ (0, 10 μM, 40 μM, 100 μM) were incubated with freshly prepared ΔN LSD1-CoREST.
# [3] = target: LSD1; conditions: H3K4me2 model peptide substrate, Ki/M, read-out: Ki (Ki app), Table S4, cited from earlier work
# From the text: Comparative (Ki app) data of peptide sequences that inhibit LSD1-catalytzed demethylation on a H3K4me2 model (peptide) substrate.
compound,measurement,setting,value
CC(=O)NCC(=O)N[C@@H](CCCNC(=N)N)C(=O)N[C@@H](CCCNC(=N)N)C(=O)N[C@H](C(=O)N[C@@H](CO)C(=O)N[C@@H](CCCNC(=N)N)C(=O)N[C@@H](CCCNC(=N)N)C(=O)N[C@@H](CCCCN)C(=O)N[C@@H](CCCNC(=N)N)C(=O)N[C@@H](C)C(=O)N[C@@H](CCCCN)C(=O)N[C@H](C(=O)N[C@@H](CCC(=O)O)C(=O)N[C@@H](Cc1ccc(O)cc1)C(N)=O)C(C)C)[C@@H](C)O [NLS],IC50,[1],30.4 ± 3.2 µM
same,effect of peptide on LSD1 demethylation activity (absorbance vs time),[2]; listed as NLS peptide,inhibits LSD1; also recorded: both inhibit LSD1 activity; also recorded: acted as an inhibitor
same,Ki,[2],3.3 ± 0.6 µM
same,mode of inhibition,"[2]; Lineweaver Burk plot, 0-10 μM NLS peptide, H3K4me2 peptide substrate",competitive inhibition; also recorded: competitive inhibitor
"ARTKQTARKSTG [H3 (1−12), histone H3 peptide residues 1-12]",Ki,"[3]; supplement numbering ref 5, 6",199 µM
ARTKmeQTARKSpTGGKAPRKQLA [H3(1-21) K4me S10p],Ki,"[3]; supplement numbering ref 5, 6",31 µM
ARTKmeQTARmeKSTGGKAPRKQLA [H3(1-21)K4meR8me],Ki,[3]; supplement numbering ref 7,100 µM
ARTKpropQTARKSTGGKAPRKQLA [H3(1-21) K4propargylamine],Ki,[3]; supplement numbering ref 9,16.6 µM
Ac-GRRDDRRKRAKVEY-NH2 [NLS-p∗],effect of peptide on LSD1 demethylation activity (absorbance vs time),[2],do not obstruct LSD1-catalyzed demethylation
same,effect of peptide on LSD1 demethylation activity (absorbance vs time),[2]; listed as NLSp*,does not inhibit LSD1-catalyzed
same,fold weaker inhibition (Ki) compared to the NLS peptide,[2],approximately 12 fold
same,fold weaker inhibition (Ki) compared to the NLS peptide,[2]; listed as NLSp*,10 fold
same,Ki,[2],38.7 ± 1.8 µM
"GRRTSRRKme2RAKVEY [NLS-K114me2, dimethylated K114 NLS peptide, aa 107–120]",acts as substrate of LSD1,[2],does not serve as a substrate
same,acts as substrate of LSD1,[2]; listed as NLS K114me2,does NOT act as a substrate of LSD1
same,effect of peptide on LSD1 demethylation activity (absorbance vs time),[2],inhibition of demethylation activity was retained
same,effect of peptide on LSD1 demethylation activity (absorbance vs time),[2]; listed as NLS K114 me2,both inhibit LSD1 activity
PRGFLVKRSKKSTPVSYRVR [INSM1 (1−20)],Ki,[3]; supplement numbering ref 4,0.24 µM
PRSFLVRKPSDPNRKPNYSE [SNAIL (1-20)],Ki,[3]; supplement numbering ref 4,0.21 µM
"QTARKSTGGKAPRKQLA [H3(5-21), histone H3 peptide residues 5-21]",Ki,"[3]; supplement numbering ref 5, 6",87 µM
"REMDESLANLSEDEYY [P1, negatively charged LSD1 peptide region a.a; 121–136]",effect of peptide on LSD1 demethylation activity (absorbance vs time),[2],do not inhibit; also recorded: did not influence the demethylation reaction
"YSEEERNAKAEKEKK [P2, neutral-charged α-helical containing LSD1 peptide region a.a; 137–151]",effect of peptide on LSD1 demethylation activity (absorbance vs time),[2],do not inhibit; also recorded: did not influence the demethylation reaction
